Starred links: 1 amine or outer side, 2 acyl side, 3 side chain; linkers in the order of their positions; H or OH if unused. Positions of bridges follow the written chain, without caps; N, C: chain ends. Non-standard residues stand in square brackets, D forms with d. Residues, ends and D or L forms follow the SMILES beside them. *: point of attachment. NMedβ3hAla = C[C@H](CC(=O)[*:2])N(C)[*:1]; NMeF = CN[C@@H](Cc1ccccc1)C(=O)O; NMeI = CC[C@H](C)[C@H](NC)C(=O)O; NMeT = CN[C@H](C(=O)O)[C@@H](C)O; hPhe = N[C@@H](CCc1ccccc1)C(=O)O; NMeβAla = CN(CCC(=O)[*:2])[*:1]; NMeD = CN[C@@H](CC(=O)O)C(=O)O; NMeL = CN[C@@H](CC(C)C)C(=O)O; dNMeV = CN[C@@H](C(=O)O)C(C)C; NMeV = CN[C@H](C(=O)O)C(C)C; NMeAbu = CC[C@H](NC)C(=O)O; NMeA = CN[C@@H](C)C(=O)O; Piperidide = C1CCN(*)CC1; dNMeA = CN[C@H](C)C(=O)O; NBuGly = CCCCNCC(=O)O; βAla = NCCC(=O)O; Sar = CNCC(=O)O; tBu = CC(C)(C)*
Key:
[1] = Metabolic stability test: liver microsomal stability assay; type: in vitro ADME, mouse; conditions: mouse liver microsomes 0.5 mg protein/mL, compound 1 µM; for microsomal CLint at 1 µM: male, pH 7.4, presence of NADPH, read-out: Mouse Hepatic Microsome CLh,int NADPH(+); for Mouse Hepatic Microsome CLh,int NADPH(-): absence of NADPH
[2] = Membrane permeability test using Caco-2 cells with preincubation; type: in vitro ADME; conditions: Caco-2; preincubation 20 to 24 hours; Apical FaSSIF/HBSS pH 6.0, Basal HBSS 4% BSA pH 7.4; 180 minutes; read-out: Caco2 Papp
Caco-2 cells = test: as above; type: in vitro ADME; conditions: Caco-2 cells, preincubation 20 to 24 hours; apical FaSSIF/HBSS 1% DMSO pH 6.0, basal HBSS 4% BSA pH 7.4; basal sample at 180 minutes

Row | SMILES | microsomal CLint at 1 µM [1] [µL/min/mg] | Mouse Hepatic Microsome CLh,int NADPH(-) [1] [µL/min/mg Protein] | Papp A→B [2] [×10⁻⁶ cm/s] | Caco2 Papp (10^-6 cm/sec) (Caco-2 cells)
1 | CC[C@H]1C(=O)N(C)[C@H](C)CC(=O)N(C)[C@H](C)C(=O)N(C)[C@@H](C)C(=O)N(C)[C@@H](Cc2ccccc2)C(=O)N[C@@H](C(C)C)C(=O)N(C)[C@@H](CC(C)C)C(=O)N(C)[C@@H]([C@@H](C)O)C(=O)N(C)CC(=O)N[C@@H](C)C(=O)N(C)[C@@H](CC(C)C)C(=O)N[C@@H](COC(C)(C)C)C(=O)N(C)[C@@H](Cc2ccccc2)C(=O)N1C [pd150] (cyclo(A[NMeL]S(tBu)[NMeF][NMeAbu][NMedβ3hAla][dNMeA][NMeA][NMeF]V[NMeL][NMeT][Sar])) | 15.2 | 4.2 | 0.29 | 0.29 10^-6 cm/sec
2 | CC[C@H](C)[C@@H]1NC(=O)[C@H]([C@@H](C)CC)N(C)C(=O)[C@@H](C)NC(=O)C[C@@H](C(=O)N2CCCCC2)N(C)C(=O)[C@H](C(C)C)NC(=O)[C@H](Cc2ccccc2)N(C)C(=O)[C@H](COC(C)(C)C)NC(=O)[C@H](CC(C)C)N(C)C(=O)[C@H](C)NC(=O)CN(C)C(=O)[C@H](CC(C)C)N(C)C(=O)[C@H](C)N(C)C(=O)[C@H](Cc2ccccc2)N(C)C1=O [pd151] ([dA][NMeI]I[NMeF][NMeA][NMeL][Sar]A[NMeL]S(tBu)[NMeF]V[NMeD]-Piperidide; lactam N-13) | 29.6 | 22.4 | 0.39 | 0.39 10^-6 cm/sec
3 | CC[C@H](C)[C@@H]1NC(=O)[C@H](Cc2ccccc2)N(C)C(=O)[C@H](CC(C)C)N(C)C(=O)[C@H](CC(C)C)NC(=O)[C@H](C)N(C)C(=O)C[C@@H](C(=O)N2CCCCC2)N(C)C(=O)[C@H](C)N(C)C(=O)[C@H](CC(C)C)NC(=O)[C@H](CC(C)C)N(C)C(=O)CNC(=O)[C@H]([C@@H](C)CC)N(C)C(=O)[C@H](Cc2ccccc2)N(C)C(=O)[C@H](C)NC1=O [pd152] ([NMeA]L[NMeL][NMeF]IA[NMeF][NMeI]G[NMeL]L[NMeA][NMeD]-Piperidide; lactam N-13) | 40.2 | 32.5 | 1.02 | 1.02 10^-6 cm/sec
4 | CC[C@H](C)[C@@H]1NC(=O)[C@H]([C@@H](C)CC)N(C)C(=O)[C@@H](C)NC(=O)C[C@@H](C(=O)N2CCCCC2)N(C)C(=O)[C@H](Cc2ccccc2)N(C)C(=O)[C@H](C(C)C)NC(=O)[C@H](C)N(C)C(=O)[C@H](CC(C)C)N(C)C(=O)[C@H](C)NC(=O)CN(C)C(=O)[C@H](CC(C)C)N(C)C(=O)[C@H](C)N(C)C(=O)[C@H](Cc2ccccc2)N(C)C1=O [pd153] ([dA][NMeI]I[NMeF][NMeA][NMeL][Sar]A[NMeL][NMeA]V[NMeF][NMeD]-Piperidide; lactam N-13) | 15.1 | 26.0 | 0.2 | 0.20 10^-6 cm/sec
5 | CCCCN1CC(=O)N(C)[C@@H](Cc2ccccc2)C(=O)N[C@@H](COC(C)(C)C)C(=O)N(C)[C@@H](CC(C)C)C(=O)NCCC(=O)N(C)[C@@H](C)C(=O)N(C)[C@@H]([C@@H](C)CC)C(=O)N[C@@H](CC(C)C)C(=O)N(C)[C@H](C(=O)N2CCCCC2)CC(=O)N(C)CCC(=O)N(C)[C@@H](CC(C)C)C(=O)N[C@@H]([C@@H](C)CC)C(=O)N(C)[C@@H](Cc2ccccc2)C1=O [pd154] ([NMeβAla][NMeL]I[NMeF][NBuGly][NMeF]S(tBu)[NMeL][βAla][NMeA][NMeI]L[NMeD]-Piperidide; lactam N-13) | 41.7 | 34.3 | 0.82 | 0.82 10^-6 cm/sec
6 | CC[C@H](C)[C@H]1C(=O)NCC(=O)N(C)[C@@H](CC(C)C)C(=O)N(C)[C@@H](C(C)C)C(=O)N(C)[C@@H](C)C(=O)N(C)[C@H](C(=O)N2CCCCC2)CC(=O)N(C)[C@@H](C)C(=O)N[C@@H](CC(C)C)C(=O)N(C)[C@@H](CC(C)C)C(=O)N[C@@H](COC(C)(C)C)C(=O)N(C)[C@@H](Cc2ccccc2)C(=O)N[C@@H](C)C(=O)N(C)[C@@H](Cc2ccccc2)C(=O)N1C [pd155] ([NMeA]L[NMeL]S(tBu)[NMeF]A[NMeF][NMeI]G[NMeL][NMeV][NMeA][NMeD]-Piperidide; lactam N-13) | 48.8 | 37.2 | 0.87 | 0.87 10^-6 cm/sec
7 | CC[C@H](C)[C@@H]1NC(=O)[C@H](CC(C)C)N(C)C(=O)CN(C)C(=O)C[C@@H](C(=O)N2CCCCC2)N(C)C(=O)CNC(=O)[C@H](C)N(C)C(=O)[C@H](C(C)C)N(C)C(=O)[C@H](C)N(C)C(=O)[C@H](Cc2ccccc2)N(C)C(=O)[C@H](CC(C)C)NC(=O)[C@H](Cc2ccccc2)N(C)C(=O)[C@H](C(C)C)NC(=O)[C@H](CC(C)C)N(C)C1=O [pd156] ([Sar][NMeL]I[NMeL]V[NMeF]L[NMeF][NMeA][NMeV][NMeA]G[NMeD]-Piperidide; lactam N-13) | 34.1 | 23.7 | 0.39 | 0.39 10^-6 cm/sec
8 | CC(C)C[C@@H]1NC(=O)[C@H](Cc2ccccc2)N(C)C(=O)[C@H](C)N(C)C(=O)[C@H](CC(C)C)N(C)C(=O)CN(C)C(=O)[C@H](C(C)C)N(C)C(=O)[C@H](CC(C)C)N(C)C(=O)[C@H](C(C)C)N(C)C(=O)[C@H](C(C)C)NC(=O)[C@H](CC(C)C)N(C)C(=O)[C@@H](C(C)C)NC(=O)C[C@@H](C(=O)N2CCCCC2)N(C)C(=O)[C@H](C)N(C)C1=O [pd157] ([dV][NMeL]V[NMeV][NMeL][NMeV][Sar][NMeL][NMeA][NMeF]L[NMeA][NMeD]-Piperidide; lactam N-13) | 31.7 | 24.9 | 1.42 | 1.42 10^-6 cm/sec
9 | CC(C)C[C@@H]1NC(=O)[C@H](CC(C)C)N(C)C(=O)[C@H]([C@@H](C)O)NC(=O)[C@H](C(C)C)N(C)C(=O)[C@H](Cc2ccccc2)N(C)C(=O)[C@@H](C(C)C)NC(=O)C[C@@H](C(=O)N2CCCCC2)N(C)C(=O)[C@H](C)N(C)C(=O)[C@H](Cc2ccccc2)N(C)C(=O)[C@H](C)NC(=O)[C@H](COC(C)(C)C)NC(=O)[C@H](CC(C)C)N(C)C(=O)CN(C)C1=O [pd158] ([dV][NMeF][NMeV]T[NMeL]L[Sar][NMeL]S(tBu)A[NMeF][NMeA][NMeD]-Piperidide; lactam N-13) | 19.3 | 13.7 | 0.44 | 0.44 10^-6 cm/sec
10 | CCCCN1CC(=O)N(C)[C@@H](CC(C)C)C(=O)N[C@@H]([C@@H](C)O)C(=O)N(C)[C@@H](CC(C)C)C(=O)N2CCC[C@H]2C(=O)N[C@@H](CCc2ccccc2)C(=O)N[C@@H]([C@@H](C)CC)C(=O)N(C)[C@H](C(=O)N2CCCCC2)CC(=O)N(C)[C@@H](CC(C)C)C(=O)N[C@@H](COC(C)(C)C)C(=O)N(C)[C@@H](C(C)C)C(=O)N[C@@H]([C@@H](C)CC)C(=O)N2CCC[C@H]2C1=O [pd159] ([NMeL]S(tBu)[NMeV]IP[NBuGly][NMeL]T[NMeL]P[hPhe]I[NMeD]-Piperidide; lactam N-13) | 49.5 | 42.0 | 0.64 | 0.64 10^-6 cm/sec
11 | CC[C@H](C)[C@@H]1NC(=O)CN(C)C(=O)C[C@@H](C(=O)N2CCCCC2)N(C)C(=O)[C@H](CC(C)C)NC(=O)[C@H](CC(C)C)N(C)C(=O)[C@H]([C@@H](C)O)NC(=O)[C@H](Cc2ccccc2)N(C)C(=O)[C@H](CC(C)C)NC(=O)[C@H](C(C)C)N(C)C(=O)[C@H](C)N(C)C(=O)[C@H](CC(C)C)N(C)C(=O)[C@H](CCc2ccccc2)NC(=O)[C@H](CC(C)C)N(C)C1=O [pd160] ([Sar]I[NMeL][hPhe][NMeL][NMeA][NMeV]L[NMeF]T[NMeL]L[NMeD]-Piperidide; lactam N-13) | 21.5 | 22.3 | 0.06 | 0.06 10^-6 cm/sec
12 | CC(C)C[C@@H]1NC(=O)[C@H](C(C)C)N(C)C(=O)[C@H](Cc2ccccc2)N(C)C(=O)[C@H](COC(C)(C)C)NC(=O)[C@H](CC(C)C)N(C)C(=O)[C@H](C)N(C)C(=O)[C@H]([C@@H](C)O)NC(=O)[C@H](CC(C)C)N(C)C(=O)[C@H](C(C)C)N(C)C(=O)[C@H](CCc2ccccc2)NC(=O)[C@H](CC(C)C)N(C)C(=O)[C@@H](C(C)C)N(C)C(=O)C[C@@H](C(=O)N2CCCCC2)N(C)C1=O [pd161] ([dNMeV][NMeL][hPhe][NMeV][NMeL]T[NMeA][NMeL]S(tBu)[NMeF][NMeV]L[NMeD]-Piperidide; lactam N-13) | 35.3 | 37.0 | 0.09 | 0.09 10^-6 cm/sec
